Laboratory results: patent US8648066B2 (Exelixis, Inc., priority 2009, dated 2014)

molecular target: mTOR/GbL/Raptor (mTORC1) (Homo sapiens, UniProt P42345); assay: mTOR/GbL/Raptor (mTORC1) ELISA assay; format: biochemical; settings: phosphorylation of 4E-BP1; 0.2 nM mTORC1, 10 μM ATP; read-out: IC50 in this assay (mTORC1 ELISA)
Method: The measurement of mTORC1 enzyme activity was performed in an ELISA assay format following the phosphorylation of 4E-BP1 protein. All experiments were performed in the 384-well format. Generally, 0.5 μL DMSO containing varying concentrations of the test Compound was mixed with 15 μL enzyme solution. Kinase reactions were initiated with the addition of 15 μL of substrates-containing solution. The assay conditions were as follows; 0.2 nM mTORC1, 10 μM ATP and 50 nM NHis-tagged 4E-BP1 in 20 mM Hepes, pH 7.2, 1 mM DTT, 50 mM NaCl, 10 mM MnCl2, 0.02 mg/mL BSA, 0.01% CHAPS, 50 mM β-glycerophosphate. Following an incubation of 120 minutes at ambient temperature, 20 μL of the reaction volume was transferred to a Ni-Chelate-coated 384-well plate. The binding step of the 4E-BP1 protein proceeded for 60 minutes, followed by washing 4 times each with 50 μL of Tris-buffered saline solution (TBS). Anti-phospho-4E-BP1 rabbit-IgG (20 μL, 1:5000) in 5% BSA-TBST (0.2% Tween-20 in TBS) was added and further incubated for 60 minutes. Incubation with a secondary HRP-tagged anti-IgG was similarly performed after washing off the primary antibody (4 washes of 50 μL). Following the final wash step with TBST, 20 μL of SuperSignal ELISA Femto (Pierce Biotechnology) was added and the luminescence measured using an EnVision plate reader.

| IC50 | SMILES |
| --- | --- |
| ≥ 2000 nM | COc1cc2c(N3CCOc4ccc(-c5ccc6nc(C)[nH]c6c5)cc4C3)ncnc2c(OC)c1OC [Example 57, 7-(2-methyl-1H-benzimidazol-6-yl)-4-[6,7,8-tris(methyloxy)quinazolin-4-tris(methyloxy)quinazolin-4-yl]-2,3,4,5-tetrahydro-1,4-benzoxazepine] |
| 50 to 250 nM | CCc1ncnc(N2CCOc3ccc(-c4ccc5nc(C)[nH]c5c4)cc3C2)c1CC [Example 58, 4-(5,6-diethylpyrimidin-4-yl)-7-(2-methyl-1H-benzimidazol-6-yl)-2,3,4,5-tetrahydro-1,4-benzoxazepine] |
| 50 to 250 nM | Cc1nc2ccc(-c3ccc4c(c3)CN(c3cc(C(C)C)ncn3)CCO4)cc2[nH]1 [Example 59, 7-(2-methyl-1H-benzimidazol-6-yl)-4-[6-(1-methylethyl)pyrimidin-4-yl]-2,3,4,5-tetrahydro-1,4-benzoxazepine] |
| 50 to 250 nM | Cc1nc2ccc(-c3ccc4c(c3)CN(c3ncnc5c3CCN(Cc3ccccc3)C5)CCO4)cc2[nH]1 [Example 60, 7-(2-methyl-1H-benzimidazol-6-yl)-4-[7-(phenylmethyl)-5,6,7,8-tetrahydropyrido[3,4-d]pyrimidin-4-yl]-2,3,4,5-tetrahydro-1,4-benzoxazepine] |
| 50 to 250 nM | CCc1c(C(C)C)ncnc1N1CCOc2ccc(-c3ccc4nc(C)[nH]c4c3)cc2C1 [Example 61, 4-[5-ethyl-6-(1-methylethyl)pyrimidin-4-yl]-7-(2-methyl-1H-benzimidazol-6-yl)-2,3,4,5-tetrahydro-1,4-benzoxazepine] |
| 250 to 1000 nM | Cc1nc2ccc(-c3ccc4c(c3)CN(c3ncnc(C(C)C)c3C)CCO4)cc2[nH]1 [Example 62, 7-(2-methyl-1H-benzimidazol-6-yl)-4-[5-methyl-6-(1-methylethyl)pyrimidin-4-yl]-2,3,4,5-tetrahydro-1,4-benzoxazepine] |
| 50 to 250 nM | Cc1nc2ccc(-c3ccc4c(c3)CN(c3ncnc5c3CCC(C)C5)CCO4)cc2[nH]1 (centres unmarked) [Example 63, 7-(2-methyl-1H-benzimidazol-6-yl)-4-(7-methyl-5,6,7,8-tetrahydroquinazolin-4-yl)-2,3,4,5-tetrahydro-1,4-benzoxazepine] |
| 50 to 250 nM | CCc1c(C)ncnc1N1CCOc2ccc(-c3ccc4nc(C)[nH]c4c3)cc2C1 [Example 64, 4-(5-ethyl-6-methylpyrimidin-4-yl)-7-(2-methyl-1H-benzimidazol-6-yl)-2,3,4,5-tetrahydro-1,4-benzoxazepine] |
| ≤ 10 nM | Cc1nc2ccc(-c3ccc4c(c3)CN(c3ncnc5c3CC(C)(C)CC5)CCO4)cc2[nH]1 [Example 65, 4-(6,6-dimethyl-5,6,7,8-tetrahydroquinazolin-4-yl)-7-(2-methyl-1H-benzimidazol-6-yl)-2,3,4,5-tetrahydro-1,4-benzoxazepine] |
| ≤ 10 nM | Cc1nc2ccc(-c3ccc4c(c3)CN(c3ncnc(C)c3C(C)C)CCO4)cc2[nH]1 [Example 66, 7-(2-methyl-1H-benzimidazol-6-yl)-4-[6-methyl-5-(1-methylethyl)pyrimidin-4-yl]-2,3,4,5-tetrahydro-1,4-benzoxazepine] |
| 10 to 50 nM | CCC1CCc2ncnc(N3CCOc4ccc(-c5ccc6nc(C)[nH]c6c5)cc4C3)c2C1 (centres unmarked) [Example 68, 4-(6-ethyl-5,6,7,8-tetrahydroquinazolin-4-yl)-7-(2-methyl-1H-benzimidazol-6-yl)-2,3,4,5-tetrahydro-1,4-benzoxazepine] |
| 50 to 250 nM | Cc1nc2ccc(-c3ccc4c(c3)CN(c3ncnc(C)c3CC3CC3)CCO4)cc2[nH]1 [Example 69, 4-[5-(cyclopropylmethyl)-6-methylpyrimidin-4-yl]-7-(2-methyl-1H-benzimidazol-6-yl)-2,3,4,5-tetrahydro-1,4-benzoxazepine] |
| ≤ 10 nM | CCc1ncnc(N2CCOc3ccc(-c4ccc5nc(C)[nH]c5c4)cc3C2)c1Cc1ccccc1 [Example 70, 4-[6-ethyl-5-(phenylmethyl)pyrimidin-4-yl]-7-(2-methyl-1H-benzimidazol-6-yl)-2,3,4,5-tetrahydro-1,4-benzoxazepine] |
| ≤ 10 nM | Cc1nc2ccc(-c3ccc4c(c3)CN(c3ncnc(C)c3Cc3cccc(F)c3)CCO4)cc2[nH]1 [Example 72, 4-{5-[(3-fluorophenyl)methyl]-6-methylpyrimidin-4-yl}-7-(2-methyl-1H-benzimidazol-6-yl)-2,3,4,5-tetrahydro-1,4-benzoxazepine] |
| ≤ 10 nM | Cc1nc2ccc(-c3ccc4c(c3)CN(c3ncnc(C)c3Cc3cccc(Cl)c3)CCO4)cc2[nH]1 [Example 73, 4-{5-[(3-chlorophenyl)methyl]-6-methylpyrimidin-4-yl}-7-(2-methyl-1H-benzimidazol-6-yl)-2,3,4,5-tetrahydro-1,4-benzoxazepine] |
| ≤ 10 nM | Cc1nc2ccc(-c3ccc4c(c3)CN(c3ncnc(C)c3C(C)c3ccccc3)CCO4)cc2[nH]1 (centres unmarked) [Example 74] |
| 50 to 250 nM | Cc1nc2ccc(-c3ccc4c(c3)CN(c3ncnc5c3CC(C)C5)CCO4)cc2[nH]1 (centres unmarked) [Example 76, 7-(2-methyl-1H-benzimidazol-6-yl)-4-(6-methyl-6,7-dihydro-5H-cyclopenta[d]pyrimidin-4-yl)-2,3,4,5-tetrahydro-1,4-benzoxazepine] |
| 1000 to 2000 nM | Cc1nc2ccc(-c3ccc4c(c3)CN(c3ncnc(Nc5ccccc5)c3C)CCO4)cc2[nH]1 [Example 77, 5-methyl-6-[7-(2-methyl-1H-benzimidazol-6-yl)-2,3-dihydro-1,4-benzoxazepine-4(5H)-yl]-N-phenylpyrimidin-4-amine] |
| ≤ 10 nM | Cc1ccc(Cc2c(C)ncnc2N2CCOc3ccc(-c4ccc5nc(C)[nH]c5c4)cc3C2)cc1 [Example 78, 7-(2-methyl-1H-benzimidazol-6-yl)-4-{6-methyl-5-[(4-methylphenyl)methyl]pyrimidin-4-yl}-2,3,4,5-tetrahydro-1,4-benzoxazepine] |
| ≤ 10 nM | Cc1nc2ccc(-c3ccc4c(c3)CN(c3ncnc(C)c3Cc3ccc(F)cc3)CCO4)cc2[nH]1 [Example 79, 4-{5-[(4-fluorophenyl)methyl]-6-methylpyrimidin-4-yl}-7-(2-methyl-1H-benzimidazol-6-yl)-2,3,4,5-tetrahydro-1,4-benzoxazepine] |
| ≤ 10 nM | Cc1nc2ccc(-c3ccc4c(c3)CN(c3ncnc(C)c3Cc3ccc(Cl)cc3)CCO4)cc2[nH]1 [Example 80, 4-{5-[(4-chlorophenyl)methyl]-6-methylpyrimidin-4-yl}-7-(2-methyl-1H-benzimidazol-6-yl)-2,3,4,5-tetrahydro-1,4-benzoxazepine] |
| 10 to 50 nM | COc1cccc(Cc2c(C)ncnc2N2CCOc3ccc(-c4ccc5nc(C)[nH]c5c4)cc3C2)c1 [Example 81, 7-(2-methyl-1H-benzimidazol-6-yl)-4-(6-methyl-5-{[3-(methyloxy)phenyl]methyl}pyrimidin-4-yl)-2,3,4,5-tetrahydro-1,4-benzoxazepine] |
| 10 to 50 nM | Cc1cccc(Cc2c(C)ncnc2N2CCOc3ccc(-c4ccc5nc(C)[nH]c5c4)cc3C2)c1 [Example 82, 7-(2-methyl-1H-benzimidazol-6-yl)-4-{6-methyl-5-[(3-methylphenyl)methyl]pyrimidin-4-yl}-2,3,4,5-tetrahydro-1,4-benzoxazepine] |
| ≤ 10 nM | Cc1nc2ccc(-c3ccc4c(c3)CN(c3ncnc(C)c3Cc3cc(F)cc(Cl)c3)CCO4)cc2[nH]1 [Example 83, 4-{5-[(3-chloro-5-fluorophenyl)methyl]-6-methylpyrimidin-4-yl}-7-(2-methyl-1H-benzimidazol-6-yl)-2,3,4,5-tetrahydro-1,4-benzoxazepine] |
| 10 to 50 nM | COc1ccccc1Cc1c(C)ncnc1N1CCOc2ccc(-c3ccc4nc(C)[nH]c4c3)cc2C1 [Example 84, 7-(2-methyl-1H-benzimidazol-6-yl)-4-(6-methyl-5-{[2-(methyloxy)phenyl]methyl}pyrimidin-4-yl)-2,3,4,5-tetrahydro-1,4-benzoxazepine] |
| 10 to 50 nM | Cc1nc2ccc(-c3ccc4c(c3)CN(c3ncnc(C)c3Cc3ccccc3C)CCO4)cc2[nH]1 [Example 86, 7-(2-methyl-1H-benzimidazol-6-yl)-4-{6-methyl-5-[(2-methylphenyl)methyl]pyrimidin-4-yl}-2,3,4,5-tetrahydro-1,4-benzoxazepine] |
| ≤ 10 nM | Cc1nc2ccc(-c3ccc4c(c3)CN(c3ncnc(C)c3Cc3ccc(F)c(F)c3)CCO4)cc2[nH]1 [Example 89, 4-{5-[(3,4-difluorophenyl)methyl]-6-methylpyrimidin-4-yl}-7-(2-methyl-1H-benzimidazol-6-yl)-2,3,4,5-tetrahydro-1,4-benzoxazepine] |
| 10 to 50 nM | Cc1nc2ccc(-c3ccc4c(c3)CN(c3ncnc(C)c3Cc3ccc(C(F)(F)F)cc3)CCO4)cc2[nH]1 [Example 90, 7-(2-methyl-1H-benzimidazol-6-yl)-4-(6-methyl-5-{[4-(trifluoromethyl)phenyl]methyl}pyrimidin-4-yl)-2,3,4,5-tetrahydro-1,4-benzoxazepine] |
| 10 to 50 nM | Cc1nc2ccc(-c3ccc4c(c3)CN(c3ncnc(C)c3Cc3cc(F)cc(F)c3)CCO4)cc2[nH]1 [Example 91, 4-(5-[(3,5-difluorophenyl)methyl]-6-methylpyrimidin-4-yl}-7-(2-methyl-1H-benzimidazol-6-yl)-2,3,4,5-tetrahydro-1,4-benzoxazepine] |
